# What was measured:
# Assay type in all cases: biochemical
# [1] = molecular target: CDK7/CycH/Mat1 (Homo sapiens, UniProt P50613); test: CDK7 Enzymatic Activity Assay (Lance Kinase Activity Assay, FRET); conditions: CDK7/CycH/Mat1, 25 μM ATP final; class ranges; read-out: CDK7: IC50 [nM] for CDK7 inhibition
# Outline: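 TR-FRET (LANCE) kinase assay: CDK7/CycH/Mat1 phosphorylates Ulight-MBP substrate for 1 h at room temperature in pH 7.5 HEPES buffer; detection 1 h with Eu-labelled anti-phospho antibody plus EDTA.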
# [2] = molecular target: CDK9/Cyclin T1 (Homo sapiens, UniProt P50750); test: CDK9 Enzymatic Activity Assay (Lance Kinase Activity Assay, FRET); conditions: Table 5B, class symbols per IC50 [nM] ranges of b581; read-out: CDK9: Selectivity of CDK7 inhibition over CDK9 inhibition
# Outline: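 CDK9/cyclin T1 phosphorylation of a ULight-MBP peptide was run for 1 h at room temperature in pH 7.5 HEPES buffer with MgCl2, EGTA, DTT and Tween-20. It was followed by 1 h with Eu-anti-phospho-MBP antibody (4 nM) in EDTA detection buffer. TR-FRET loss gave IC50 from 8-point, 1:3 sigmoidal dose-response curves.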
# [3] = molecular target: T1, CDK2/CycA (Homo sapiens, UniProt P24941); test: CDK2 Enzymatic Activity Assay (Lance Kinase Activity Assay, FRET); conditions: Table 5B, class symbols per IC50 [nM] ranges of b581; read-out: CDK2: Selectivity of CDK7 inhibition over CDK2 inhibition
# T1 construct: purchased Proqinase
# Description: This protocol describes how the Lance Kinase Activity Assay was performed to determine IC50 values of compounds of general formula (I) against CDK/Cyclin complexes. The principle behind this enzymatic assay is based upon the phosphorylation of the Ulight-Peptide Substrat. It is detected by using a specific EU-labeled anti-phospho peptide antibody.
# Binding of an inhibitor to the kinase prevents phosphorylation of the Ulight-MBP Substrat, resulting in a loss of FRET.
# CDK2 Enzymatic Activity Assay
# The compounds of general formula (I) exemplary summarized in Table 1 were diluted from a 10 mM DMSO stock solution 1:10 in a total volume of 15 μl DMSO. This compound predilution was then serial diluted 1:3 over 8 steps in DMSO and briefly spun down. Each compound solution was now diluted 1:20 in Enzymatic Buffer (HEPES: 50 mM, pH: 7.5; MgCl2: 10 mM; EGTA: 1 mM; DTT: 2 mM; Tween-20: 0.01%), mixed thoroughly and spun down.
# For positive controls, 2 μl of DMSO working solution were mixed with 6 μl CDK2/CycA/substrate working solution and 2 μl ATP working solution. Positive and negative controls were calculated from at least 8 different wells. The 384 well plates were mixed in a Teleshaker plate mixer (Beckman Coulter, Brea, Calif., USA) at 2000 rpm for 40 sec, and incubated for 1 h at room temperature before addition of 10 μl LANCE Detection Buffer (EDTA: […]; Eu-Anti-P-MBP: 4 nM) per well. Plates were mixed in a Teleshaker plate mixer (Beckman Coulter, Brea, Calif., USA) at 2000 rpm for 40 sec, followed by incubation with Detection Buffer for 1 h, and reading. […] IC50 values were determined from the sigmoidal dose response curves with the software Quattro Workflow (Quattro GmbH, Munich, Germany).
# Sequence of CDK7/CycH/Mat1 (P50613 whole entry): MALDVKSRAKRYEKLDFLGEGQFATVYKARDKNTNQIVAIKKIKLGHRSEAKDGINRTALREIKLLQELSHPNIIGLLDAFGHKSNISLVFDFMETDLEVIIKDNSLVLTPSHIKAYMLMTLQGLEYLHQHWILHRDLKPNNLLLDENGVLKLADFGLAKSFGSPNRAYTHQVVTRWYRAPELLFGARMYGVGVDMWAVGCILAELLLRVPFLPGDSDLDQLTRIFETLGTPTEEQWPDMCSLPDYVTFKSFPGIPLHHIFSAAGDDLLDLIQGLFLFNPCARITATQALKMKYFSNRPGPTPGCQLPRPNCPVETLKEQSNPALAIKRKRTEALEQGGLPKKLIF
# Sequence of CDK9/Cyclin T1 (P50750 whole entry): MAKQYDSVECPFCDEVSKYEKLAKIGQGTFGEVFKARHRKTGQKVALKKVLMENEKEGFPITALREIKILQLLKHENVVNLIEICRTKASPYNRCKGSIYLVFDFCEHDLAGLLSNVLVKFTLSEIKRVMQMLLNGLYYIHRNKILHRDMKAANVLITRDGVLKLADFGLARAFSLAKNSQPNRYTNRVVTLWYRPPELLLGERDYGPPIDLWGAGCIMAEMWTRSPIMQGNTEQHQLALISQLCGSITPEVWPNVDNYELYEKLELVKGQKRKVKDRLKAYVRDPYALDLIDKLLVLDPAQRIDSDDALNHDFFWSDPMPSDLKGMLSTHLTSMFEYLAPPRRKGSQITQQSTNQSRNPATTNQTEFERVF
# Sequence of CDK9/Cyclin T1 (O60563 whole entry partner): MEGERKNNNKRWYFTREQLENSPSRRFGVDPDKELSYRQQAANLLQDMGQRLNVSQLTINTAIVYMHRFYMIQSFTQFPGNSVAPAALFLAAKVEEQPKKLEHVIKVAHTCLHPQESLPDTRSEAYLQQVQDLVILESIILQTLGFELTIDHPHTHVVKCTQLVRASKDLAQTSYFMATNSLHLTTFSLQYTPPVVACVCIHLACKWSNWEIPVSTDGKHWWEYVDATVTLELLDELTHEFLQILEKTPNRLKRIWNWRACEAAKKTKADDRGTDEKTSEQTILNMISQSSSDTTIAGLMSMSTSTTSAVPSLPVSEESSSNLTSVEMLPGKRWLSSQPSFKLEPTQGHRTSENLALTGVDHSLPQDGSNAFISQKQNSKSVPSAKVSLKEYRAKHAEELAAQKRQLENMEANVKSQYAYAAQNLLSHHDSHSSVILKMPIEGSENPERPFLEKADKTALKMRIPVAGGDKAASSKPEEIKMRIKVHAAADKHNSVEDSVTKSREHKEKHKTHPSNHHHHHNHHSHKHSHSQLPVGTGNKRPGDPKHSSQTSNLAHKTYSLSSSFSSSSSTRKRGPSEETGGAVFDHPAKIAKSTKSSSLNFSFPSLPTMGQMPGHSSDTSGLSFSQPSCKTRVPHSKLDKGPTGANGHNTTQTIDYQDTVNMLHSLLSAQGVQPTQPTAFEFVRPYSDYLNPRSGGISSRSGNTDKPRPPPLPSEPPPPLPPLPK
Structure (SMILES),IC50 [1],IC50 [2],IC50 [3]
"CC(C)c1cnn2c(NCc3ccccc3CN3CCCC3=O)nc(O[C@@H]3CCCNC3)nc12 [(VII-092), (R)-1-(2-(((8-isopropyl-2-(piperidin-3-yloxy)pyrazolo[1,5-a][1,3,5]triazin-4-yl)amino)methyl)benzyl)pyrrolidin-2-one]",10 to 25 nM,> 2500 nM,> 2500 nM
"CC(C)c1cnn2c(NCc3c(F)cccc3-n3cccn3)nc(O[C@@H]3CCCNC3)nc12 [(VII-44), (R)-N-(2-fluoro-6-(1H-pyrazol-1-yl)benzyl)-8-isopropyl-2-(piperidin-3-yloxy)pyrazolo[1,5-a][1,3,5]triazin-4-amine]",< 5 nM,> 2500 nM,50 to 500 nM
"CC(C)c1cnn2c(NCc3ccccc3NC(=O)NC3CCCCC3)nc(O[C@@H]3CCCNC3)nc12 [(VII-112), (R)-1-cyclohexyl-3-(2-(((8-isopropyl-2-(piperidin-3-yloxy)pyrazolo[1,5-a][1,3,5]triazin-4-yl)amino)methyl)phenyl)urea]",5 to 10 nM,> 2500 nM,> 2500 nM
"CC(C)c1cnn2c(NCc3ccccc3-n3cncn3)nc(OC3CCNCC3)nc12 [(VII-22), N-(2-(1H-1,2,4-triazol-1-yl)benzyl)-8-isopropyl-2-(piperidin-4-yloxy)pyrazolo[1,5-a][1,3,5]triazin-4-amine]",< 5 nM,500 to 2500 nM,50 to 500 nM
"CC(C)c1cnn2c(NCc3ccccc3-c3cccs3)nc(O[C@@H]3CCNC3)nc12 [(VII-13), (R)-8-isopropyl-2-(pyrrolidin-3-yloxy)-N-(2-(thiophen-2-yl)benzyl)pyrazolo[1,5-a][1,3,5]triazin-4-amine]",< 5 nM,500 to 2500 nM,50 to 500 nM
"CC(C)c1cnn2c(NCc3cccc4ccncc34)nc(O[C@@H]3CCCNC3)nc12 [(VII-31), (R)-8-isopropyl-N-(isoquinolin-8-ylmethyl)-2-(piperidin-3-yloxy)pyrazolo[1,5-a][1,3,5]triazin-4-amine]",< 5 nM,< 50 nM,50 to 500 nM
"CC(C)c1cnn2c(NCc3ccccc3-c3cccs3)nc(OC3CCNCC3)nc12 [(VII-14), 8-isopropyl-2-(piperidin-4-yloxy)-N-(2-(thiophen-2-yl)benzyl)pyrazolo[1,5-a][1,3,5]triazin-4-amine]",< 5 nM,500 to 2500 nM,50 to 500 nM
"CCNC(=O)Nc1ccccc1CNc1nc(O[C@@H]2CCCNC2)nc2c(C(C)C)cnn12 [(VII-114), (R)-1-ethyl-3-(2-(((8-isopropyl-2-(piperidin-3-yloxy)pyrazolo[1,5-a][1,3,5]triazin-4-yl)amino)methyl)phenyl)urea]",< 5 nM,> 2500 nM,> 2500 nM
"CC(C)c1cnn2c(NCc3ccccc3-n3cccn3)nc(OC3COC4(CCNCC4)C3)nc12 (stereo not drawn) [(VII-05), 2-(1-oxa-8-azaspiro[4.5]decan-3-yloxy)-N-(2-(1H-pyrazol-1-yl)benzyl)-8-isopropylpyrazolo[1,5-a][1,3,5]triazin-4-amine]",< 5 nM,> 2500 nM,> 2500 nM
"CC(C)c1cnn2c(NCc3ccccc3C(F)(F)F)nc(OC3CCN(C)CC3)nc12 [(VII-58), 8-isopropyl-2-((1-methylpiperidin-4-yl)oxy)-N-(2-(trifluoromethyl)benzyl)pyrazolo[1,5-a][1,3,5]triazin-4-amine]",10 to 25 nM,> 2500 nM,< 50 nM
"CC(C)c1cnn2c(NCc3ccccc3-c3ccccc3)nc(OC3CCNCC3)nc12 [(VII-09), N-([1,1′-biphenyl]-2-ylmethyl)-8-isopropyl-2-(piperidin-4-yloxy)pyrazolo[1,5-a][1,3,5]triazin-4-amine]",< 5 nM,> 2500 nM,> 2500 nM
"CC(C)c1cnn2c(NCc3ccccc3SC3CCCC3)nc(O[C@@H]3CCCNC3)nc12 [(VII-119), (R)-N-(2-(cyclopentylthio)benzyl)-8-isopropyl-2-(piperidin-3-yloxy)pyrazolo[1,5-a][1,3,5]triazin-4-amine]",> 25 nM,> 2500 nM,500 to 2500 nM
"CC(C)c1cnn2c(NCc3ccccc3F)nc(OC3CCN(C)CC3)nc12 [(VII-56), N-(2-fluorobenzyl)-8-isopropyl-2-((1-methylpiperidin-4-yl)oxy)pyrazolo[1,5-a][1,3,5]triazin-4-amine]",5 to 10 nM,50 to 500 nM,500 to 2500 nM

# Next, values leading:
IC50 [1],IC50 [2],IC50 [3],Structure (SMILES)
< 5 nM,> 2500 nM,> 2500 nM,"CC(C)c1cnn2c(NCc3ccccc3-n3cccn3)nc(S(=O)(=O)C3CCNCC3)nc12 [(X-7), N-(2-(1H-pyrazol-1-yl)benzyl)-8-isopropyl-2-(piperidin-4-ylsulfonyl)pyrazolo[1,5-a][1,3,5]triazin-4-amine]"
> 25 nM,> 2500 nM,> 2500 nM,"CC(C)c1cnn2c(NCc3ccccc3C3CCCC3)nc(O[C@@H]3CCCNC3)nc12 [(VII-142), (R)-N-(2-cyclopentylbenzyl)-8-isopropyl-2-(piperidin-3-yloxy)pyrazolo[1,5-a][1,3,5]triazin-4-amine]"
< 5 nM,> 2500 nM,> 2500 nM,"CC(C)c1cnn2c(NCc3ccccc3-n3cccn3)nc(C(=O)NCC3CNC3)nc12 [(XII-2), 4-((2-(1H-pyrazol-1-yl)benzyl)amino)-N-(azetidin-3-ylmethyl)-8-isopropylpyrazolo[1,5-a][1,3,5]triazine-2-carboxamide]"
> 25 nM,> 2500 nM,> 2500 nM,"CC(C)c1cnn2c(NCc3ccccc3-n3cccn3)nc(CN(C)CCCN3CCCCC3)nc12 [(XXX-6), N-(2-(1H-pyrazol-1-yl)benzyl)-8-isopropyl-2-((methyl(3-(piperidin-1-yl)propyl)amino)methyl)pyrazolo[1,5-a][1,3,5]triazin-4-amine]"
> 25 nM,> 2500 nM,> 2500 nM,"COCCN1CCN(Cc2nc(NCc3ccccc3-n3cccn3)n3ncc(C(C)C)c3n2)CC1 [(XXX-9), N-(2-(1H-pyrazol-1-yl)benzyl)-8-isopropyl-2-((4-(2-methoxyethyl)piperazin-1-yl)methyl)pyrazolo[1,5-a][1,3,5]triazin-4-amine]"
10 to 25 nM,> 2500 nM,> 2500 nM,"CC(C)c1cnn2c(NCc3ccccc3-n3cccn3)nc(N(C)CCN3CCCC3)nc12 [(VIII-045), N4-(2-(1H-pyrazol-1-yl)benzyl)-8-isopropyl-N2-methyl-N2-(2-(pyrrolidin-1-yl)ethyl)pyrazolo[1,5-a][1,3,5]triazine-2,4-diamine]"
> 25 nM,> 2500 nM,500 to 2500 nM,"CC(C)c1cnn2c(NCc3ccccc3-n3cccn3)nc(C(=O)N(C)CCN3CCOCC3)nc12 [(XII-06), 4-((2-(1H-pyrazol-1-yl)benzyl)amino)-8-isopropyl-N-methyl-N-(2-morpholinoethyl)pyrazolo[1,5-a][1,3,5]triazine-2-carboxamide]"
> 25 nM,> 2500 nM,> 2500 nM,"CC(C)c1cnn2c(NCc3ccccc3-n3cccn3)nc(C(=O)N(C)CCN3CCCC3)nc12 [(XII-8), 4-((2-(1H-pyrazol-1-yl)benzyl)amino)-8-isopropyl-N-methyl-N-(2-(pyrrolidin-1-yl)ethyl)pyrazolo[1,5-a][1,3,5]triazine-2-carboxamide]"
